The NIST ThermoML archive (doi:10.1016/j.jct.2006.11.003)

Assay: xn = mol fraction of the nth substance listed
Details: 101 kPa, Liquid

Cc1ccccc1C [1,2-dimethylbenzene] + CN1CCCC1=O
Details | mass density [kg/m3]
293.15 K, x1 = 0.0478 | 1024.81
293.15 K, x1 = 0.0865 | 1018.48
293.15 K, x1 = 0.1584 | 1006.82
293.15 K, x1 = 0.2266 | 995.89
293.15 K, x1 = 0.2714 | 988.75
293.15 K, x1 = 0.3393 | 978.06
293.15 K, x1 = 0.387 | 970.61
293.15 K, x1 = 0.4321 | 963.63
293.15 K, x1 = 0.5011 | 953.04
293.15 K, x1 = 0.5668 | 943.08
293.15 K, x1 = 0.6297 | 933.64
293.15 K, x1 = 0.7099 | 921.74
293.15 K, x1 = 0.7859 | 910.6
293.15 K, x1 = 0.8577 | 900.18
293.15 K, x1 = 0.9388 | 888.55
293.15 K, x1 = 1 | 879.84
303.15 K, x1 = 0.0565 | 1014.2
303.15 K, x1 = 0.1122 | 1005.19
303.15 K, x1 = 0.1895 | 992.78
303.15 K, x1 = 0.2467 | 983.7
303.15 K, x1 = 0.3239 | 971.56
303.15 K, x1 = 0.3967 | 960.27
303.15 K, x1 = 0.4565 | 951.08
303.15 K, x1 = 0.5127 | 942.54
303.15 K, x1 = 0.5655 | 934.58
303.15 K, x1 = 0.6251 | 925.68
303.15 K, x1 = 0.7076 | 913.5
303.15 K, x1 = 0.7626 | 905.46
303.15 K, x1 = 0.8498 | 892.86
303.15 K, x1 = 0.9049 | 884.97
303.15 K, x1 = 0.9639 | 876.58
303.15 K, x1 = 1 | 871.48
313.15 K, x1 = 0.0485 | 1006.39
313.15 K, x1 = 0.0922 | 999.35
313.15 K, x1 = 0.1795 | 985.39
313.15 K, x1 = 0.2368 | 976.31
313.15 K, x1 = 0.3036 | 965.84
313.15 K, x1 = 0.3679 | 955.86
313.15 K, x1 = 0.4285 | 946.56
313.15 K, x1 = 0.4894 | 937.31
313.15 K, x1 = 0.5375 | 930.05
313.15 K, x1 = 0.6034 | 920.22
313.15 K, x1 = 0.673 | 909.94
313.15 K, x1 = 0.7355 | 900.8
313.15 K, x1 = 0.8196 | 888.65
313.15 K, x1 = 0.8767 | 880.48
313.15 K, x1 = 0.9289 | 873.06
313.15 K, x1 = 1 | 863.03
323.15 K, x1 = 0.0478 | 997.82
323.15 K, x1 = 0.1014 | 989.16
323.15 K, x1 = 0.1603 | 979.74
323.15 K, x1 = 0.2364 | 967.69
323.15 K, x1 = 0.3026 | 957.34
323.15 K, x1 = 0.3575 | 948.83
323.15 K, x1 = 0.4244 | 938.56
323.15 K, x1 = 0.4915 | 928.37
323.15 K, x1 = 0.5582 | 918.35
323.15 K, x1 = 0.6217 | 908.9
323.15 K, x1 = 0.6735 | 901.26
323.15 K, x1 = 0.7536 | 889.56
323.15 K, x1 = 0.8206 | 879.9
323.15 K, x1 = 0.8728 | 872.43
323.15 K, x1 = 0.9511 | 861.36
323.15 K, x1 = 1 | 854.51
333.15 K, x1 = 0.0579 | 986.94
333.15 K, x1 = 0.1023 | 979.83
333.15 K, x1 = 0.1814 | 967.25
333.15 K, x1 = 0.2556 | 955.59
333.15 K, x1 = 0.3135 | 946.59
333.15 K, x1 = 0.3815 | 936.11
333.15 K, x1 = 0.4478 | 926.02
333.15 K, x1 = 0.5014 | 917.94
333.15 K, x1 = 0.5654 | 908.37
333.15 K, x1 = 0.6122 | 901.45
333.15 K, x1 = 0.6632 | 893.96
333.15 K, x1 = 0.8105 | 872.67
333.15 K, x1 = 0.8744 | 863.57
333.15 K, x1 = 0.9214 | 856.93
333.15 K, x1 = 0.9632 | 851.06
333.15 K, x1 = 1 | 845.91
343.15 K, x1 = 0.0462 | 979.94
343.15 K, x1 = 0.1045 | 970.59
343.15 K, x1 = 0.1614 | 961.55
343.15 K, x1 = 0.2153 | 953.05
343.15 K, x1 = 0.2864 | 941.94
343.15 K, x1 = 0.3576 | 930.94
343.15 K, x1 = 0.4102 | 922.9
343.15 K, x1 = 0.4828 | 911.91
343.15 K, x1 = 0.5477 | 902.2
343.15 K, x1 = 0.6065 | 893.5
343.15 K, x1 = 0.6735 | 883.68
343.15 K, x1 = 0.7533 | 872.13
343.15 K, x1 = 0.8095 | 864.07
343.15 K, x1 = 0.8745 | 854.83
343.15 K, x1 = 0.9407 | 845.51
343.15 K, x1 = 1 | 837.23
353.15 K, x1 = 0.0475 | 970.95
353.15 K, x1 = 0.1037 | 961.94
353.15 K, x1 = 0.1582 | 953.26
353.15 K, x1 = 0.2167 | 944.03
353.15 K, x1 = 0.2633 | 936.72
353.15 K, x1 = 0.34 | 924.83
353.15 K, x1 = 0.4067 | 914.62
353.15 K, x1 = 0.4529 | 907.6
353.15 K, x1 = 0.5184 | 897.76
353.15 K, x1 = 0.5689 | 890.24
353.15 K, x1 = 0.6322 | 880.91
353.15 K, x1 = 0.7097 | 869.62
353.15 K, x1 = 0.7859 | 858.64
353.15 K, x1 = 0.8511 | 849.36
353.15 K, x1 = 0.9354 | 837.48
353.15 K, x1 = 1 | 828.47
